In PubChem BioAssay (NCI) one finds TGI and GI50 data, which are given here for 12 molecules.

Among the test systems are A549 NSCLC; HCT-15 colon; IGROV1 ovarian; NCI-H23 lung; OVCAR-3 ovarian; SK-MEL-28 melanoma; T-47D breast; UACC-62 melanoma; UO-31 renal; SK-OV-3 ovarian.
What all share (assay): NCI tumour cell line growth inhibition, 48 h

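How tested: cells in 96-well plates exposed to compound for 48 hours at five concentrations. At the GI50, growth is halved. TGI: concentration producing complete growth inhibition.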 Where a SMILES comes first, the peptide text is derived from it. [ ]: non-standard residue; d: D form. The star is where a group is joined. NMeF = CN[CH](Cc1ccccc1)C(=O)O; NMeV = CN[CH](C(=O)O)C(C)C; Boc = CC(C)(C)OC(=O)*

Take `NP(=O)(Oc1c2occc2cc2ccc(=O)oc12)N(CCCl)CCCl` (stereo not given): the TGI in the assay with A549 NSCLC, with HCT-15 colon, with IGROV1 ovarian, with NCI-H23 lung, with OVCAR-3 ovarian and in the assay with SK-MEL-28 melanoma was greater than 100 µM in each case. In addition, the TGI in the assay on T-47D breast, in the assay with UACC-62 melanoma and with UO-31 renal was greater than 100 µM throughout.

With `Cc1ccn2c(c1)nc1nc3ccccc3nc12`, the TGI in the assay with A549 NSCLC, in the assay with HCT-15 colon, in the assay on IGROV1 ovarian, in the assay with NCI-H23 lung, in the assay on OVCAR-3 ovarian and in the assay on SK-MEL-28 melanoma was greater than 100 µM each time. The TGI in the assay on SK-OV-3 ovarian, in the assay on UACC-62 melanoma and in the assay with UO-31 renal was greater than 100 µM throughout.

For the molecule `CCCN1CCC(=O)N(CCC(F)(F)C(F)(F)C(F)(F)C(F)(F)C(F)(F)C(F)(F)F)C1=S`, the TGI in the assay on A549 NSCLC, with IGROV1 ovarian, in the assay with NCI-H23 lung, with OVCAR-3 ovarian, in the assay with SK-MEL-28 melanoma and in the assay on SK-OV-3 ovarian was greater than 100 µM throughout. Further, the TGI in the assay on T-47D breast, in the assay with UACC-62 melanoma and with UO-31 renal was greater than 100 µM in each case.

As to `COc1cc2nc3cc([N+](=O)[O-])ccc3c(NCCCNCCO)c2cc1OC`, the GI50 was 255 nM with A549 NSCLC; 3590 nM in the assay with HCT-15 colon; 225 nM in the assay with IGROV1 ovarian; 143 nM in the assay on NCI-H23 lung; 244 nM with OVCAR-3 ovarian; 0.265 µM in the assay with SK-OV-3 ovarian. Moreover, the GI50 is 205 nM with T-47D breast and 2150 nM with UO-31 renal. Besides, the TGI with A549 NSCLC was 0.635 µM; with HCT-15 colon, 19.5 µM; in the assay on IGROV1 ovarian it was 0.672 µM; in the assay on NCI-H23 lung, 0.616 µM; in the assay on OVCAR-3 ovarian it was 0.622 µM; in the assay on SK-OV-3 ovarian, 0.711 µM. Further, the TGI in the assay on T-47D breast was 0.531 µM; with UO-31 renal it was 14.2 µM.

Consider `O=C(Cc1ccccc1)NN1C(=O)C(Cl)C1c1cc(Br)ccc1O` (stereo not given), for which the TGI in the assay with A549 NSCLC was greater than 100 µM; with HCT-15 colon, greater than 100 µM; in the assay with IGROV1 ovarian, greater than 100 µM; with NCI-H23 lung, 53.3 µM; with OVCAR-3 ovarian, greater than 100 µM; in the assay with SK-MEL-28 melanoma it was greater than 100 µM. Besides, the TGI in the assay on SK-OV-3 ovarian is 39 µM; in the assay on UACC-62 melanoma it was 30.7 µM; in the assay with UO-31 renal, 46.8 µM.

Consider `CC(C)C(Nc1c2ccccc2nc2ccccc12)C(=O)O` (stereo not given), for which the TGI with A549 NSCLC, in the assay on HCT-15 colon, with IGROV1 ovarian, in the assay on NCI-H23 lung, in the assay on OVCAR-3 ovarian and with SK-MEL-28 melanoma was greater than 100 µM throughout. In addition, the TGI with SK-OV-3 ovarian, with UACC-62 melanoma and in the assay on UO-31 renal was greater than 100 µM each time.

As for `CC(C)C(NC(=O)OC(C)(C)C)C(=O)N(C)C(Cc1ccccc1)C(=O)N(C)C(C(=O)O)C(C)C` (stereo not drawn) (Boc-Val-[NMeF]-[NMeV]-OH; configuration not given here), the TGI with A549 NSCLC, in the assay on HCT-15 colon, with IGROV1 ovarian, with NCI-H23 lung, in the assay on OVCAR-3 ovarian and in the assay with SK-MEL-28 melanoma was greater than 100 µM each time. Also, the TGI in the assay on SK-OV-3 ovarian, with UACC-62 melanoma and in the assay on UO-31 renal was greater than 100 µM each time.

For the molecule `Cc1cc(C(=O)Nc2ncc(Cc3cccc(C(F)(F)F)c3)s2)c2ccccc2n1`, the GI50 with A549 NSCLC is 3190 nM; with HCT-15 colon, 84 nM; in the assay with IGROV1 ovarian, 3460 nM; with NCI-H23 lung, 3900 nM; with OVCAR-3 ovarian, 2630 nM; with SK-MEL-28 melanoma it was 790 nM. In addition, the results for the GI50 with SK-OV-3 ovarian, in the assay with T-47D breast and with UO-31 renal were 4.24 µM, 181 nM and 1500 nM, respectively. For the same molecule, the TGI in the assay on A549 NSCLC, in the assay on HCT-15 colon, with IGROV1 ovarian, in the assay on NCI-H23 lung, in the assay with OVCAR-3 ovarian and in the assay with SK-MEL-28 melanoma was greater than 100 µM in each case. For the same molecule, the TGI in the assay on SK-OV-3 ovarian, in the assay on T-47D breast and in the assay with UO-31 renal was greater than 100 µM throughout.

In the case of `c1ccc(CNn2nnc3ccccc32)cc1`, the TGI in the assay on A549 NSCLC, in the assay with HCT-15 colon, in the assay on IGROV1 ovarian, in the assay on NCI-H23 lung, in the assay with OVCAR-3 ovarian and with SK-MEL-28 melanoma was greater than 100 µM in each case. For the same molecule, the TGI in the assay with SK-OV-3 ovarian, in the assay on UACC-62 melanoma and in the assay with UO-31 renal was greater than 100 µM each time.

In the case of `COc1cc2c(cc1OC)C(CC(=O)NN=C(C)C)NCC2` (stereo not given), the TGI in the assay on A549 NSCLC, in the assay on HCT-15 colon, in the assay with IGROV1 ovarian, in the assay on NCI-H23 lung, with OVCAR-3 ovarian and in the assay with SK-MEL-28 melanoma was greater than 100 µM each time. Besides, the TGI in the assay on SK-OV-3 ovarian, in the assay with UACC-62 melanoma and in the assay on UO-31 renal was greater than 100 µM each time.

As to `C[C@@]12CC=C3c4nc(Nc5cccc(O)c5)sc4CC[C@]3(C)[C@H]1CC[C@]1(C)C(=O)CC[C@@H]21`, the GI50 is 4600 nM with A549 NSCLC; 1380 nM in the assay on HCT-15 colon; 2230 nM in the assay on IGROV1 ovarian; 2740 nM in the assay on NCI-H23 lung; 1660 nM with OVCAR-3 ovarian; 4.81 µM in the assay with SK-OV-3 ovarian. For the same molecule, the GI50 in the assay on T-47D breast was 2610 nM; in the assay with UACC-62 melanoma, 2080 nM. Moreover, the TGI in the assay on A549 NSCLC is greater than 100 µM; in the assay with HCT-15 colon, 3.33 µM; in the assay with IGROV1 ovarian, 6.04 µM; in the assay on NCI-H23 lung, 12.3 µM; with OVCAR-3 ovarian, 3.1 µM; in the assay on SK-OV-3 ovarian it was 28 µM. Further, the TGI was 8.3 µM in the assay with T-47D breast and 5.25 µM in the assay on UACC-62 melanoma.

Take `CC(C)(C)c1cc(C(C)(C)C)cc(S(=O)(=O)Nc2cc3ccccc3cc2C(=O)NCCN)c1`: the GI50 in the assay with A549 NSCLC was 1950 nM; in the assay with HCT-15 colon it was 1640 nM; in the assay with NCI-H23 lung it was 1760 nM; in the assay with OVCAR-3 ovarian it was 1750 nM; in the assay with SK-MEL-28 melanoma it was 1870 nM; with SK-OV-3 ovarian it was 2.04 µM. Moreover, the figures for the GI50 with T-47D breast, with UACC-62 melanoma and in the assay with UO-31 renal were 1700 nM, 1820 nM and 1550 nM, respectively. Moreover, the TGI in the assay with A549 NSCLC was 3.77 µM; with HCT-15 colon it was 3.04 µM; in the assay with NCI-H23 lung it was 3.53 µM; with OVCAR-3 ovarian, 3.21 µM; in the assay with SK-MEL-28 melanoma, 3.64 µM; with SK-OV-3 ovarian, 4.51 µM. For the same molecule, the TGI with T-47D breast was determined as 3.6 µM; with UACC-62 melanoma, 3.4 µM; with UO-31 renal, 2.98 µM.
